Results: patent US5849735A, “Tricyclic benzazepine vasopressin antagonists” (American Cyanamid Company, priority 1995, dated 1998)

Legend:
vasopressin V2 = experiment: Vasopressin V2 Antagonist Activity in Conscious Hydrated Rats; assay type: in vivo, rat; conditions: oral 10 mg/kg, N=2, AVP challenge
Experimental: Vasopressin V2 Antagonist Activity in Conscious Hydrated Rats Conscious hydrated rats are treated with compounds under study from 0.1 to 100 mg/kg orally or vehicle. Two to four rats are used for each compound. One hour later, arginine vasopressin (AVP, antidiuretic Hormone, ADH) dissolved in peanut oil is administered at […] intraperitoneally. Two rats in each test would not receive arginine vasopressin but only the vehicle (peanut oil) to serve as water-loading control. Twenty minutes later each rat is given 30 mL/kg of deionized water orally by gavage and is placed individually in a metabolic cage equipped with a funnel and a graduated glass cylinder to collect urine for four hours. Urine volume is measure and osmolality analyzed by use of a Fiske One-Ten osmometer (Fiske Assoc., Norwood, Mass., USA). Urinary sodium, potassium, and chloride are analyzed by use of ion-specific electrodes in a Beckman E3 (Electrolye 3) Analyzer. In the following results, […] and decreased osmolality relative to AVP-control indicates activity.

[1] = target: T1, oxytocin receptor (rat uteri) (Rattus norvegicus, UniProt P70536); experiment: Oxytocin Receptor Binding; set-up: species or system rat (Sprague-Dawley); conditions: for IC50: [3H]oxytocin displacement
T1 construct: The uteri are dissected out, cleaned of fat and connective tissues; from tissue; host or cells: uteri of diethylstilbestrol-treated female Sprague-Dawley rats
T1 sequence (P70536 1-388): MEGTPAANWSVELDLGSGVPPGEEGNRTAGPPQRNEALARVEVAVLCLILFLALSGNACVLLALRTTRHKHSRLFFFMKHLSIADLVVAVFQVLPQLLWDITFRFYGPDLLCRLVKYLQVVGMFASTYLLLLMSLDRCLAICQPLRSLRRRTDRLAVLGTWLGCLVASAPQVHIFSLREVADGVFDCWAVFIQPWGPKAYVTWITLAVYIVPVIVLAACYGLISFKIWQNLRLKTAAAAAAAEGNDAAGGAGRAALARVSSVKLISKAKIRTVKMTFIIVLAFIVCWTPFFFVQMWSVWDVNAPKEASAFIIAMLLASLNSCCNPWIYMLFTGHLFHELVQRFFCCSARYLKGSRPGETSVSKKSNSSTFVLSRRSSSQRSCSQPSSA
Experimental: Oxytocin Receptor Binding
Female Sprague-Dawley rats weighing approximately 200-250 g are injected intramuscularly (i.m.) with 0.3 mg/kg of body weight of diethylstilbestrol (DES). The rats are sacrificed 18 hours later under pentobarbital anesthesia. The uteri are dissected out, cleaned of fat and connective tissues and rinsed in 50 ml of normal saline. The tissue pooled from six rats is homogenized in 50 ml of […] Tris. HCl, containing 0.5 mM dithiothreitol and 1.0 mM EDTA, adjusted to pH 7.4, using a polytron at setting 6 with three passes of 10 sec each. The homogenate is passed through two (2) layers of cheesecloth and the filtrate centrifuged at 1000×g for 10 minutes. The clear supernatant is removed and recentrifuged at 165,000×g for 30 minutes. The resulting pellet containing the oxytocin receptors is resuspended in 50.0 mM Tris.HCl containing 5.0 mM MgCl2 at pH 7.4, to give a protein concentration of 2.5 mg/ml of tissue suspension. This preparation is used in subsequent binding assays with [^3 H]oxytocin.
Binding of 3,5-[^3 H]Oxytocin ([^3 H]OT) to its receptors is done in microtiter plates using [^3 H]OT, at various concentrations, in an assay buffer of 50.0 mM Tris.HCI, pH 7.4 and containing 5.0 mM MgCl2, and a mixture of protease inhibitors: BSA, 0.1 mg; aprotinin, 1.0 mg; 1,10-phenanthroline, 2.0 mg; […], 10.0 mg; and PMSF, 0.3 mg per 100 ml of buffer solution. Non-specific binding is determined in the presence of 1.0 uM unlabeled OT. The binding reaction is terminated after 60 minutes, at 22° C., by rapid filtration through glass fiber filters using a Brandel® cell harvester (Biomedical Research and Development Laboratories, Inc., Gaithersburg, Md.). Competition experiments are conducted at equilibrium using 1.0 nM [^3 H]OT and varying the concentration of the displacing agents. The concentrations of agent displacing 50% of [^3 H]OT at its sites (IC50) are calculated by a computer assisted LUNDON-2 program (LUNDON SOFTWARE INC., Ohio, USA).

| IC50 [1] [nM] | inhibition at 10 µM [1] [%] | inhibition at 1 µM [1] [%] | Structure (SMILES) | Osmolality (vasopressin V2) [MOsm/kg] | Urine Volume (vasopressin V2) [ml/4 hrs] |
| --- | --- | --- | --- | --- | --- |
| 1100 | 86 |  | Cc1ccc(F)cc1C(=O)Nc1ccc(C(=O)N2Cc3sccc3Cc3ccccc32)cn1 [Example 2, N-[5-[(9,10-Dihydro-4H-thieno[2,3-c][1]benzazepin-9-yl)carbonyl]-2-pyridinyl]-5-fluoro-2-methylbenzamide] | 591 | 16.5 |
|  | 20 |  | Cc1ccc(F)cc1C(=O)Nc1ccc(C(=O)N2Cc3ccccc3Oc3ncccc32)cn1 [Example 4, N-[5-(Pyrido[2,3-b][1,4]benzoxazepin-5(6H)-ylcarbonyl)-2-pyridinyl]-5-fluoro-2-methylbenzamide] | 878 | 6.8 |
| 1800 | 88 |  | O=C(c1ccccc1)c1ccc(C(=O)N2Cc3ccccc3Oc3ccccc32)cc1 [Example 32, 10-(4-Benzoylbenzoyl)-10,11-dihydrodibenz[b,f][1,4]oxazepine] | 726 | 9.3 |
|  |  | 54 | Cc1ccc(F)cc1C(=O)Nc1ccc(C(=O)N2Cc3ccccc3CCc3ccccc32)cn1 [Example 45] | 979 | 6.6 |

Continued, compound first:

| Structure (SMILES) | IC50 [1] [nM] | inhibition at 10 µM [1] [%] | inhibition at 1 µM [1] [%] | Osmolality (vasopressin V2) [MOsm/kg] | Urine Volume (vasopressin V2) [ml/4 hrs] |
| --- | --- | --- | --- | --- | --- |
| CCCCOc1ccc(C(=O)N2Cc3ccccc3Cc3ccccc32)cc1 [Example 24] | 1800 | 97 |  | 1492 | 4.3 |
| O=C(c1ccc(-c2ccccc2)cc1)N1Cc2ccccc2Oc2ccccc21 [Example 26, 10-([1,1'-Biphenyl]-4-ylcarbonyl)-10,11-dihydrodibenz[b,f][1,4]oxazepine] | 2500 | 73 |  | 1058 | 4.5 |
| O=C(c1ccc(-c2ccccc2)cc1)N1Cc2sccc2Cc2ccccc21 [Example 27, 9-([1,1'-Biphenyl]-4-ylcarbonyl)-9,10-dihydro-4H-thieno[2,3-c][1]benzazepine] |  |  | 83 | 1317 | 3.3 |
